Measurements reported in patent publication US9326978B2, “A3 adenosine receptor allosteric modulators” (The United States of America, Represented by the Secretary, …, priority 2006, dated 2016).
Values joined by “and” are separate entries in the source; they are usually repeats but may differ in a detail not shown here. Identical values can stand only once.

Legend:
[1] = biological target: hA2BAR (Homo sapiens (Human), UniProt P29275); assay: Effect on NECA-induced cyclic AMP accumulation at A2B receptor; note: NECA (150 nM)-induced cyclic AMP accumulation; assay type: cell-based; conditions: read-out: hA2BAR % inhib. at 10 μM
hA2BAR, sequence (P29275 whole entry): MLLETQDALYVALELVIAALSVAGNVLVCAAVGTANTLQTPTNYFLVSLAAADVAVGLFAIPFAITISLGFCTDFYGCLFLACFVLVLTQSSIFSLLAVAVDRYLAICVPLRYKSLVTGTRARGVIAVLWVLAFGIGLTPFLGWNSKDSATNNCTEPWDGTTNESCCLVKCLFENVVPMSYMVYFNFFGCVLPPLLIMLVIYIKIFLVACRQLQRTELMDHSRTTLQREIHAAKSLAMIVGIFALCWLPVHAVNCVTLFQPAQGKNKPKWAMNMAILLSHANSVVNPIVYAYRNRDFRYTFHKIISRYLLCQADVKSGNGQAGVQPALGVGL

[2] = biological target: human A3ARs (Homo sapiens (Human), UniProt P0DMS8); assay: Dissociation kinetics of [125I]I-AB-MECA from human A3ARs; assay type: binding
human A3ARs, sequence (P0DMS8 whole entry): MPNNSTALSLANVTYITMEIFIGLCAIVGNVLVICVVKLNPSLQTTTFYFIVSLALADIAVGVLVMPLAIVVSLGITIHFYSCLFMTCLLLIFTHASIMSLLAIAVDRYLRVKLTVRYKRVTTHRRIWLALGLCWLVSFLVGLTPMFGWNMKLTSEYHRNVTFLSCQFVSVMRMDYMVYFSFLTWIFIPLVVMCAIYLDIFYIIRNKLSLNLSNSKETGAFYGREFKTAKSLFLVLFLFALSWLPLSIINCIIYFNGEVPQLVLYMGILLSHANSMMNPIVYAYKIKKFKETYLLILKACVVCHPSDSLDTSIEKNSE
Description: The dissociation of [^125I]I-AB-MECA was measured as follows. Membranes (20 μg) were preincubated at 25° C. with 0.5 nM [^125I]I-AB-MECA, in a total volume of 100 μl of Tris-HCl buffer (50 mM, pH 8.0) containing 10 mM MgCl2, and 1 mM EDTA for 60 min. The dissociation was then initiated by the addition of 3 μM Cl-IB-MECA with or without allosteric modulators. The time course of dissociation of total binding was measured by rapid filtration at appropriate time intervals. Nonspecific binding was measured after 60-min incubation in the presence of 3 μM Cl-IB-MECA. Further assay was as described above.

[3] = biological target: hA3AR (Homo sapiens (Human), UniProt P0DMS8); assay: GTPγS binding at hA3AR; assay type: biochemical
hA3AR, sequence (P0DMS8 whole entry): as above

Clc1ccc(Nc2nc3ccccc3c3[nH]c(C4CCCCC4)nc23)cc1Cl [Compound 45, N-(3,4-Dichloro-phenyl)-2-cyclohexyl-1H-imidazo[4,5-c]quinolin-4-amine]
inhibition at 10 µM [1]: -5.6%
activity at 10 µM ([2]; 0.5 h, % decrease of dissociation at 30 min, residual binding of [125I]AB-MECA after 30 min = 100%, Table 2, read-out: hA3AR Ag. Dissociation at 10 μM): 173 ± 5%
hA3R Ag. Dissociation (%) at 10 μM ([2]; % decrease of [125I]I-AB-MECA dissociation at 30 min (control = 100%), Table 3): 173 ± 5%
Enhancement of GTPγS binding (%) at hA3AR at 10 μM ([3]; 10 μM Cl-IB-MECA alone = 100%, Table 3): 194 ± 11% and 177%
Relative efficacy (%) at hA3AR at 10 μM (GTPγS binding) in absence of agonist ([3]; absence of agonist, 10 μM Cl-IB-MECA alone = 100%): 6%
Enhancement of GTP[…]S binding (%) at hA3AR at 10 μM ([3]; compared to maximal effect by 2-Cl-IB-MECA alone (control), Table 4): 194 ± 11%
